Broadly, the Ki is the equilibrium dissociation constant of an inhibitor or competing ligand from its target.

Data on nine compounds can be found in US12624004B2 (Fudan University, priority 2019, dated 2026).

Read-outs that look alike come from different tables or passages of the source.

One experiment relates to Female mice. Description: In vivo hot plate method analgesia test. The conditions noted are these: intraperitoneal; for Maximum percentage effective analgesic (% MPE): Table 1-2, hot plate 55° C., 5 mg/kg dose; for Maximum percentage effective analgesia (% MPE): Table 5-2, hot plate 55° C. The procedure:
Female mice weighing about 20 g were placed on a hot plate apparatus preheated to 55° C., and the latency of the hindfoot response of the mice was used as the pain threshold indicator. Animals were screened before the experiment, and those with response latency less than 5 s or more than 30 s were excluded. To prevent foot scalding, the maximum observation time was set at 60 s. The basal pain threshold was the average of two measurements, with a 5-min interval between measurements. pain thresholds were measured at 15 m, 30 m, 60 m and 120 m after intraperitoneal injection in each group of mice. The percentage effective analgesia (% MPE) was calculated according to the following formula: percentage effective analgesia (% MPE) (post-dose latency−pre-dose latency)/(60−pre-dose latency)×100%. ED50 values were calculated based on the effective percentage of analgesia using the software Graphpad prism 5.0 software.
(§1) Female mice weighing about 20 g were placed on a hot plate apparatus preheated to 55° C., and the latency of the hindfoot response of the mice was used as the pain threshold indicator. Animals were selected before the experiment, and those with response latency less than 5 s or greater than 30 s were excluded. To prevent foot scalding, the maximum observation time was set at 60 s. The basal pain threshold was the average of two measurements, with a 5-min interval between measurements. pain thresholds were measured at 15 min, 30 min, 60 min and 120 min after intraperitoneal administration in each group of mice. The percentage of analgesic effectiveness (% MPE) was calculated according to the following equation. Percentage of effective analgesia (% MPE)_(Pre-dose incubation period−Incubation period after drug administration)/(60-Pre-dose incubation period)×100%. ED50 values were calculated based on the effective percentage of analgesia using GraphPad prism 5.0 software.
as §1, with “were screened” for “were selected”, “measurements. Pain” for “measurements. pain”, “following formula.” for “following equation. Percentage of effective analgesia (% MPE)_(Pre-dose incubation period−Incubation period after drug administration)/(60-Pre-dose incubation period)×100%. ED50 values were calculated based on the effective percentage of analgesia using GraphPad prism 5.0 software.”
ED50 values were calculated based on the effective percentage of analgesia using Graphpad Prism 5.0.
Female mice weighing about 20 g were placed on a hot plate apparatus preheated to 55° C., and the latency of the hindfoot response of the mice was used as the pain threshold indicator. Animals were screened before the experiment, and those with response latency less than 5 s or more than 30 s were excluded. To prevent foot scalding, the maximum observation time was set at 60 s. The basal pain threshold was the average of two measurements, with a 5-min interval between measurements. pain thresholds were measured at 15 min, 30 min, 60 min and 120 min after intraperitoneal administration in each group of mice. The analgesic effective percentage (% MPE) was calculated according to the following formula: analgesic effective percentage (% MPE)=(latency after drug administration−latency before drug administration)/(60−latency before drug administration)×100%. ED50 values were calculated based on the effective percentage of analgesia using the software Graphpad prism 5.0.
Female mice weighing about 20 g were placed on a hot plate apparatus preheated to 55° C. and the latency of the hindfoot response was used as an indicator of pain threshold. […]
On the technique in general: Thermal pain tests record how soon the animal reacts.

A further experiment concerns the target T1, μ opioid receptor (Homo sapiens, UniProt P35372).
T1 construct: expressed in transfected cells; host or cells: CHO cells (membranes)
Description: Competition binding assay on membranes of CHO cells expressing μ opioid receptor, [3H]-labeled ligand. The conditions noted are these: for inhibition at 10 µM: Table 1-1, 10 μM concentration of compound, mean ± SD of three measurements, read-out: μOR Binding rate (%); for inhibition at 1 µM: 0.5 h, read-out: μOR Combination rate (%). The procedure:
(§2) CHO cells expressing p opioid receptor, δ opioid receptor and κ opioid receptor were cultured in 10 cm^2 culture dishes (F-12 medium+10% neonatal bovine serum) for several days, and the culture fluid was aspirated after the cells had grown to the bottom of the dishes; 3 ml of PBS/EDTA solution (0.1M NaCl, 0.01M NaH2PO4, 0.04% EDTA) was added to digest the cells for 3-5 min. Add ice-cold homogenate (50 mM HEPES PH 7.4, 3 mM MgCl, 1 mM EGTA) to the centrifuge tube, transfer the solution and sediment to a homogenizer and homogenize; then transfer the homogenate to a centrifuge tube and centrifuge at 18000 rpm. Centrifuge for 15 min, two times; the obtained precipitate was homogenized with appropriate amount of 50 mM Tris-HCl, pH 7.4 buffer and divided into centrifuge tubes and stored at −70° C. in the refrigerator until use.
(§3) The total binding tube was spiked with 20-30 μg of the expressed membrane receptor protein and […] ligand (1-2 nM), the corresponding non-specific binding tube was spiked with 1 μM of the corresponding ligand, and the sample tubes were spiked with various screened opioid ligands in a final volume of […], incubated at 30° C. for 30 min, and the reaction was terminated in ice water. […] The samples were filtered under negative pressure through GF/C (whatman) glass fiber filter paper on a Millipore sample collector. The reaction was rinsed three times with 4 ml of 50 mMV Tris-HCl (pH 7.4), the filter paper was dried and placed in 0.5 ml Eppendorf tubes with 0.5 ml of lipophilic scintillation solution, the radioactivity was measured by PERKIN ELMER PRI-CARB 2910 liquid scintillation counter and the inhibition rate was calculated. Inhibition rate (or binding rate)=(total binding rate dpm−sample tube dpm)/(total binding tube dpm−non-specific binding tube dpm)×100%
(§4) IC50 was calculated using Prism 5.0 software. the Ki value was calculated as follows, Ki=IC50/(1+[IL]/Kd), [lL] is the concentration of the added labeled ligand and Kd is the equilibrium dissociation parameter of the labeled ligand.
(§5) CHO cells expressing p opioid receptor, δ opioid receptor and κ opioid receptor were cultured in a 10 cm^2 culture dish (F-12 medium+10% neonatal bovine serum) for several days, and the culture fluid was aspirated after the cells grew to the bottom of the dish. 3 mL PBS/EDTA solution (0.1 M NaCl, 0.01 M NaH2PO4, 0.04% EDTA) was added to digest the cells for 3˜5 min, blew with a pipette to completely dislodge the cells. The cells were collected in a 40 mL centrifuge tube, centrifuged at 5000 rpm for 5 min. The supernatant was removed and the ice-cold homogenate (50 mM HEPES pH 7.4, 3 mM MgCl2, 1 mM EGTA) was added to the centrifuge tube. The solution and the precipitate were transferred to a homogenizer. Then the homogenate was transferred to a centrifuge tube and centrifuged at 18000 rpm for 15 min. The precipitate was centrifuged twice at 18000 rpm for 15 min. The obtained precipitate was homogenized by adding appropriate amount of 50 mM Tris-HCl, pH 7.4 buffer and divided into centrifuge tubes and stored at −70° C. in the refrigerator until use.
(§6) The total binding tube was added with 20-30 μg of expressed membrane receptor protein and [3H]-labeled ligand (1-2 nM). The corresponding non-specific binding tube was added with 1 μM of the corresponding ligand, and the sample tubes were added with various screened opioid ligands in a final volume of 100 μL. All of them were incubated for 30 min at 30° C., and the reaction was terminated in ice water. The samples were filtered under negative pressure through GF/C (Whatman) glass fiber filter paper on a Millipore sample collector. The reaction was rinsed three times with 4 mL of 50 mM Tris-HCl (pH 7.4), the filter paper was dried and placed in 0.5 mL Eppendorf tubes with 0.5 mL of lipophilic scintillation solution. […]

The next experiment deals with T2, δ opioid receptor (Homo sapiens, UniProt P41143).
T2 construct: expressed in transfected cells; host or cells: CHO cells (membranes)
Description: Competition binding assay on membranes of CHO cells expressing δ opioid receptor, [3H]-labeled ligand. Particulars: for inhibition at 10 µM / inhibition at 1 µM: 0.5 h; for inhibition at 10 µM: Table 1-1, 10 μM concentration of compound, read-out: δOR Binding rate (%); for Ki: read-out: δOR Ki; for inhibition at 1 µM: read-out: δOR Combination rate (%). As to the method: as §2, §3, §4, §5, §6

For the next experiment, the target named is T3, κ opioid receptor (Homo sapiens, UniProt P41145).
T3 construct: expressed in transfected cells; host or cells: CHO cells (membranes)
Description: Competition binding assay on membranes of CHO cells expressing κ opioid receptor, [3H]-labeled ligand. Particulars: for inhibition at 10 µM / inhibition at 1 µM: 0.5 h; for inhibition at 10 µM: Table 1-1, 10 μM concentration of compound, read-out: κOR Binding rate (%); for Ki: read-out: κOR Ki; for inhibition at 1 µM: read-out: κOR Combination rate (%). The procedure:
as §2, §3, §4, §5, §6

[1] abbreviates: Table 5-1, 1 μM concentration of compound.

Take `COc1cccc(C2(O)CCC(CS(=O)(=O)c3ccccc3)CC2CN(C)C)c1.Cl` (stereo not drawn) [2-((Dimethylamino)methyl)-1-(3-methoxyphenyl)-4-((phenylsulfonyl)methyl)cyclohexane-1-ol hydrochloride]: the “Maximum percentage effective analgesic (% MPE)” value in the experiment with Female mice is 22.4%. Further, the inhibition at 10 µM amounted to 86.9 ± 2% at μ opioid receptor, 9.3% on δ opioid receptor and 34.6 ± 5.1% on κ opioid receptor.

For `COc1cccc(C2(O)CCC(N(C)S(=O)(=O)c3cccc(Cl)c3)CC2CN(C)C)c1.Cl` (stereo not drawn) [3-Chloro-N-(3-((dimethylamino)methyl)-4-hydroxy-4-(methoxyphenyl)cyclohexyl)-N-methylbenzenesulfonamide hydrochloride], the “Maximum percentage effective analgesic (% MPE)” value with Female mice is 20.2%. The inhibition at 10 µM worked out at 90 ± 2% at μ opioid receptor, 13.8 ± 3% at δ opioid receptor and 66.6 ± 4.8% at κ opioid receptor.

As to `COc1cccc([C@@]2(O)CCN(S(=O)(=O)Cc3ccccc3)C[C@@H]2CN(C)C)c1.Cl` [(3S,4R)-1-(Benzylsulfonyl)-3-((dimethylamino)methyl)-4-(3-methoxyphenyl)piperidin-4-ol hydrochloride], the “% MPE” value with Female mice (Table 4-2, hot plate 55° C., 10 mg/kg dose) worked out at 13.4%. In addition, the inhibition at 0.1 µM on μ opioid receptor (Table 4-1 footnote a, 0.1 μM, read-out: μOR Inhibition rate) stood at 24.5 ± 0.64%; on δ opioid receptor (Table 4-1 footnote a, 0.1 μM, read-out: δOR Inhibition rate), 7.3 ± 4.5%; at κ opioid receptor (Table 4-1 footnote a, 0.1 μM, read-out: κOR Inhibition rate) it was 20.75 ± 0.13%.

Regarding `COc1cccc(C2(O)CCN(C(=O)Cc3cc(C(F)(F)F)cc(C(F)(F)F)c3)CC2CN(C)C)c1.Cl` (stereo not drawn) [FWBE1, 2-(3,5-Bis(trifluoromethyl)phenyl)-1-(3-((dimethylamino)methyl)-4-hydroxy-4-(3-methoxyphenyl)piperidin-1-yl)ethyl-1-one hydrochloride], the “Maximum percentage effective analgesia (% MPE)” value in the experiment with Female mice (10 mg/kg dose) is given as 17.8%. In addition, the Ki is 0.0253 ± 0.0049 µM at μ opioid receptor (Table 5-1, read-out: μOR Ki); 4.39 ± 0.351 µM at δ opioid receptor (Table 5-1); 4.42 ± 0.181 µM on κ opioid receptor (Table 5-1).

As to `COc1cccc(C2(O)CCN(C(=O)Cc3ccsc3)CC2CN(C)C)c1.Cl` (stereo not drawn) [FWBE2, 1-(3-((Dimethylamino)methyl)-4-hydroxy-4-(3-methoxyphenyl)piperidin-1-yl)-2-(thiophen-3-yl)ethyl-1-one hydrochloride], the “Maximum percentage effective analgesia (% MPE)” value in the experiment on Female mice (10 mg/kg dose) worked out at 42%. For the same compound, the inhibition at 1 µM on μ opioid receptor was 40.6 ± 0.9%; at δ opioid receptor it was 14.7 ± 0.9%; on κ opioid receptor, 20.8 ± 1.9%.

`COc1cccc(C2(O)CCN(C(=O)Cc3ccccc3)CC2CN(C)C)c1.Cl` (stereo not drawn) [FWBE3, 1-(3-((Dimethylamino)methyl)-4-hydroxy-4-(3-methoxyphenyl)piperidin-1-yl)-2-phenylethyl-1-one hydrochloride]: the “Maximum percentage effective analgesia (% MPE)” value with Female mice (10 mg/kg dose) amounted to 63.5%. Further, the values for the inhibition at 1 µM on μ opioid receptor, on δ opioid receptor and at κ opioid receptor were 41.1 ± 2.3%, 11.7 ± 0.9% and 23.4 ± 5.7%, respectively.

As to `COc1cccc(C2(O)CCN(C(=O)Cc3cccc(C(F)(F)F)c3)CC2CN(C)C)c1.Cl` (stereo not drawn) [FWBE4, 1-(3-((Dimethylamino)methyl)-4-hydroxy-4-(3-methoxyphenyl)piperidin-1-yl)-2-(3-(trifluoromethyl)phenyl)ethyl-1-one hydrochloride], the “Maximum percentage effective analgesia (% MPE)” value in the experiment on Female mice (10 mg/kg dose) came to 69%. The inhibition at 1 µM at μ opioid receptor (setting [1]) amounted to 37.8 ± 2.9%. Further, the values for the Ki on δ opioid receptor (Table 5-1) and at κ opioid receptor (Table 5-1) were > 10 µM and 3.03 ± 0.15 µM, respectively.

With `COc1cccc(C2(O)CCN(C(=O)c3cc(F)c(F)cc3F)CC2CN(C)C)c1.Cl` (stereo not drawn) [FWBE5, (3-((Dimethylamino)methyl)-4-hydroxy-4-(3-methoxyphenyl)piperidin-1-yl)(2,4,5-trifluorophenyl)methanone hydrochloride], in the experiment with Female mice (10 mg/kg dose), the “Maximum percentage effective analgesia (% MPE)” value is given as 3%. For the same compound, the inhibition at 1 µM was 13 ± 0.2% on μ opioid receptor (setting [1]), 7 ± 6.3% at δ opioid receptor (setting [1]) and 23 ± 5.9% at κ opioid receptor (setting [1]).

As for `COc1cccc(C2(O)CCN(C(=O)Cc3cccc(OC(F)(F)F)c3)CC2CN(C)C)c1.Cl` (stereo not drawn) [FWBE6, 1-(3-((Dimethylamino)methyl)-4-hydroxy-4-(3-methoxyphenyl)piperidin-1-yl)-2-(3-(trifluoromethoxy)phenyl)ethyl-1-one hydrochloride], the “Maximum percentage effective analgesia (% MPE)” value in the experiment with Female mice (10 mg/kg dose) came out at 47%. In addition, the inhibition at 1 µM at μ opioid receptor (setting [1]) is 21.5 ± 0.1%; on δ opioid receptor (setting [1]), 13.2 ± 1%; on κ opioid receptor (setting [1]) it was 13.5 ± 0.6%.
